The values that follow come from US20060049052A1, “Ampholytic buffer having high buffering capacity and high conductivity in isoelectric form” (The Texas A&M University System, priority 2004, published 2006).

Where a name gives a salt, the structure may show the parent alone.

The conditions of series [1]: indirect UV detection CE, bare fused silica capillary, 15 kV, T=25, UV 214 nm, BGEs of varied pH.
Description: Using a 26 :m I.D. bare fused silica capillary, Lt=26.1 cm, Ld=19.7 cm at 15 kV in positive to negative polarity, T=25 EC, UV detector set at 214 nm, conventional CE was carried out in 20 mM tris(hydroxymethyl) aminomethane (Tris) and 20 mM benzylamine BGEs titrated with pTSA.
Using a 26 :m I.D. bare fused silica capillary, Lt=26.1 cm, Ld=19.7 cm at 15 kV in positive to negative polarity, T=25 EC, and the UV detector set at 214 nm, conventional CE was carried out in 20 mM acetic acid BGEs titrated with imidazole and 20 mM pyridine BGEs titrated with pTSA.
Series [2] in a line: Conductivity, pH and buffering capacity of 50 mM solutions of ampholytic buffers. The following applies: 50 mM solution. Format: physicochemical. On the procedure: The conductivities, pH values and buffering capacities of 50 mM solutions of some of the ampholytic buffers of the present invention are listed in Table 1. For comparison purposes, values for histidine (HIS), a widely used low conductivity ampholytic buffer are also included.

Series [3] in a line: pH of concentrated aqueous solution of the isoelectric buffer after desalting in IET apparatus (equal to pI). Format: physicochemical. The conditions noted are these: isoelectric state after IET desalting. From the text:
The aqueous solution was desalted and the ampholytic buffer brought to isoelectric state in an IET apparatus. The pH of the concentrated aqueous solution of isoelectric BCPDEAH was 3.8, equal to its pI value. After liophylization, the solid product was characterized by ^1H- and ^13C-NMR. […] The identity and purity of the final product were further confirmed by high resolution ESI-MS. Only signals corresponding to BCPDEAH and its fragment ions are seen.

For the compound `CCCN(CCC)CC(CN(CCC)CCC)OS(=O)(=O)O` [BDPSP, 1,3-bis(dipropylamino)-2-O-sulfo-propane], in series [1], the pI is recorded as 8.7.

In series [2], `CC[N+](CC)(CCCC(=O)[O-])CCCC(=O)O` [BCPDEAH, N,N-bis(carboxypropyl)diethyl ammonium hydroxide, inner salt] showed a Buffering capacity of 35.7 mM/pH, a Conductivity of 18.4 mS/m and a pH of 4.15. Besides, the “pH of the concentrated aqueous solution of isoelectric form, equal to its pI value” in series [3] stood at 3.8.

In series [2], `O=S(=O)(O)OC(CN1CCOCC1)CN1CCOCC1` [DMSP, 1,3-dimorpholino-2-O-sulfo-propane] displayed a Buffering capacity of 14.7 mM/pH, a Conductivity of 7.3 mS/m and a pH of 5.79. Further, the pI in series [1] amounted to 5.8.

For `CN(C)CC(CN(C)C)OS(=O)(=O)O` [BDASP, 1,3-bis(N,N-dimethylamino)-2-O-sulfo-propane], in series [2], the Buffering capacity amounted to 25.0 mM/pH, the Conductivity was determined as 25.8 mS/m and the pH turned out to be 7.82. Moreover, the pI in series [1] is on record as ~8.0.

For the compound `O=S(=O)(O)OC(CN1CCCCC1)CN1CCCCC1` [DPSP, 1,3-dipiperidino-2-O-sulfo-propane], in series [2], the Buffering capacity is reported as 20.8 mM/pH, the Conductivity was 18.1 mS/m and the pH is listed as 8.35. In series [1], this compound displayed a pI of 8.9.

In series [2], `N[C@@H](Cc1c[nH]cn1)C(=O)O` [HIS, histidine, reference compound] registered a Buffering capacity of 12.5 mM/pH, a Conductivity of 3.5 mS/m and a pH of 7.44.
